Measurements as given in paper PMC12621175, “Scaffold Fusion and SAR Transfer with a Chemical Language Model Generates Novel Liver X Receptor Modulators” (Journal of Medicinal Chemistry, 2025).
pIC50: −log10 of the molar value. “Also recorded” adds a separate entry of the source.

Assays:
LXRα = target: T1, LXRα (Homo sapiens, UniProt Q13133); experiment: Gal4-LXRα hybrid reporter gene assay; type: cell-based; settings: for classification: applies to LXRa and LXRb; for LXR modulation in Gal4 hybrid reporter gene assays (mode of action): both LXR subtypes (LXRα and LXRβ)
T1 construct: coding for the hinge region, and LBD of the canonical isoform of the respective nuclear receptor; expressed in transfected cells; host or cells: HEK293T
T1 sequence (Q13133 209-447 limits assumed): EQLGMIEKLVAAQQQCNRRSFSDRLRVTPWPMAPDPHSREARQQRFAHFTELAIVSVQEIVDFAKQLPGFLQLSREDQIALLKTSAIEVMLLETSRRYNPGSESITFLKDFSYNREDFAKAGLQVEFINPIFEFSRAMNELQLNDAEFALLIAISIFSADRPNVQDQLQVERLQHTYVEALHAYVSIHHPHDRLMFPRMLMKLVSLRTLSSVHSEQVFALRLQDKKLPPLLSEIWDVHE
Method: The LXR-responsive reporter ABCA1-pGL3 was used for the full-length reporter gene assay.
The day before transfection, HEK293T cells were seeded in 96-well plates (4 × 10^4 cells/well). Before transfection, the medium was changed to Opti-MEM without any supplements. Transient transfection was carried out using Lipofectamine LTX reagent (Invitrogen) according to the manufacturer’s protocol with (a) pFR-Luc (Stratagene), pRL-SV40 (Promega), and the corresponding Gal4-fusion nuclear receptor plasmid or (b) the LXR-responsive reporter ABCA1-pGL3 and pRL-SV40 (Promega). […] Each concentration was tested in duplicate, and each experiment was repeated in at least three biologically independent repeats. […] Luminescence was measured with a Spark 10 M luminometer (Tecan Deutschland GmbH). Normalization of transfection efficiency and cell growth was done by division of firefly luciferase data by renilla luciferase data multiplied by 1000, resulting in relative light units (RLU). Fold activation was obtained by dividing the mean RLU of the tested compound at a respective concentration by the mean RLU of the untreated 0.1% DMSO control. […] Separate control experiments to exclude nonspecific reporter gene activation or VP16-mediated effects were performed following the same procedure in the absence of a nuclear receptor expression plasmid (pFR-Luc, pRL-SV40, and pECE-SV40-Gal4-VP16 only).

SREBP1c = experiment: qPCR of LXR-regulated mRNA expression in HepG2: SREBP1c; type: cell-based, human; settings: HepG2, 24 h
[1] = metabolic stability assay in rat liver microsomes; type: in vitro ADME; settings: 10 μM
Method: The dissolved test compound (5 μL, final concentration 10 μM) was preincubated at 37 °C in 432 μL of phosphate buffer (0.1 M, pH 7.4) together with a 50 μL NADPH regenerating system (30 mM glucose-6-phosphate, 4 U/mL glucose-6-phosphate dehydrogenase, 10 mM NADP, and 30 mM MgCl2). After 5 min, the reaction was started by the addition of 13 μL of microsome mix from the liver of Sprague–Dawley rats (Invitrogen; 20 mg protein/mL in 0.1 M phosphate buffer) in a shaking water bath at 37 °C. The reaction was stopped by the addition of 500 μL of ice-cold methanol at 0, 15, 30, and 60 min. The samples were centrifuged at 5000 g for 5 min at 4 °C. The supernatants were analyzed, and the test compound was quantified by HPLC: The composition of the mobile phase is adapted tot the test compound in a range of 40-90% acetonitrile and 10-60% water (0.1% formic acid); flow rate: 1 mL/min; stationary phase: PurospherⓇ STAR, RP18, 5 μm, 125 × 4, precolumn: PurospherⓇ STAR, RP18, 5 μm, 4 × 4; detection wavelength: 254 and 280 nm; injection volume: 50 μL. […] The amounts of the test compound were quantified by an external calibration curve. Data are expressed as the mean ± SEM remaining compound from three independent experiments.

HepG2 cells = experiment: lipid accumulation assay (Oil Red O staining); type: cell-based; settings: 72 h
Method: HepG2 cells were seeded in collagen-coated 96-well plates at a density of 10^4 cells per well and incubated for 24 h. For the lipolytic mode, the cells were pretreated for additional 24 h with 66.7 μM oleic acid and 33.3 μM palmitic acid in culture medium with 1% bovine serum albumin (BSA). The cells were then treated with DMSO (0.1%) alone or in combination with test compounds in the culture medium. After 72 h, the cells were washed with PBS (2 × 50 μL) and fixed with 10% formalin solution (50 μL) for 15 min. After removal of the fixative, the cells were washed with H2O (2 × 50 μL), followed by 50 μL of 60% iPrOH and incubated with 50 μL Oil Red O solution (0.3% in 60% iPrOH) for 10 min to stain neutral lipids. The cells were washed quickly with 50 μL of 60% iPrOH and 2 × 50 μL of PBS. Microscopic images were taken using a 40x objective on a BZ-X810 microscope (KEYENCE, Frankfurt, Germany). Images were analyzed using ImageJ software (v1.54) according to a literature method.

HEK293T cells = experiment: resazurin-based proliferation assay, HEK293T; type: cell-based
Method: HepG2 or HEK293T cells were seeded in 96-well plates (4 × 10^4 cells per well). […] After 4, 14, and 24 h, the medium was aspirated, and the cells were incubated with 100 μM resazurin solution in Opti-MEM (prepared from a 0.15 mg/mL resazurin stock in DPBS) for 60 min. The metabolic activity was assessed by conversion of resazurin to resorufin, which was quantified by measuring absorbance at 570 nm and a reference wavelength of 600 nm. The cell count was calculated from a calibration curve with 0–10^5 cells per well in steps of 2 × 10^4.

EC50 (LXRα; classification agonist, read-out: LXRa pEC50/pIC50 (converted)) [µM]	SMILES	classification (LXRα)	LXR modulation in Gal4 hybrid reporter gene assays (mode of action) (LXRα)	SREBP1c mRNA expression (SREBP1c; 3 μM)	metabolic stability [1] [min]	lipid accumulation (lipogenesis) (HepG2 cells; 10 μM, compared to T0901317 10 μM)	antiproliferative effect (HEK293T cells; 10 μM)	pIC50 (LXRα)	SREBP1c mRNA expression (SREBP1c; 30 μM)	mrna remaining at 30 µM (SREBP1c; Homo sapiens, 30 μM) [%]	effect on T0901317-induced lipogenesis (HepG2 cells; 30 μM with T0901317 10 μM)	lipid accumulation (lipogenesis) (HepG2 cells; 30 μM)	antiproliferative effect (HEK293T cells; 30 μM)
0.562	CCN(C(=O)c1ccccc1)c1ccc(C(O)(C(F)(F)F)C(F)(F)F)cc1 [Compound 1, N-Ethyl-N-(4-[1,1,1,3,3,3-hexafluoro-2-hydroxypropan-2-yl]phenyl)benzamide]	agonist	partial agonists	induced	> 60	formation of less lipids in HepG2 cells than the structurally related full agonist T0901317; also recorded: induced lipogenesis after 72 h less efficiently	did not inhibit the proliferation	–	–	–	–	–	–
–	CS(=O)(=O)c1cccc(-c2ccc(CN(Cc3cccc(C(F)(F)F)c3Cl)CC(c3ccccc3)c3ccccc3)cc2)c1 [Compound 3, N-(2-Chloro-3-[trifluoromethyl]benzyl)-N-([3′-{methylsulfonyl}-{1,1′-biphenyl}-4-yl]methyl)-2,2-diphenylethan-1-amine]	antagonist	did not activate LXRs but suppressed LXR activation by the reference agonist T0901317	–	> 60	–	–	5.12	repressed SREBP1c expression; also recorded: robustly suppressed SREBP1c	10	significantly attenuated T0901317-induced lipogenesis; also recorded: mitigated T090-induced steatosis	did not induce lipid accumulation; also recorded: did not stimulate lipid accumulation	did not inhibit the proliferation
